Measured values taken from patent publication US20240343681A1, “MOLECULES HAVING PESTICIDAL UTILITY AND INTERMEDIATES AND PROCESSES RELATED THERETO” (priority 2021, published 2024).

Each compound was assayed on Beet Armyworm (Spodoptera exigua, LAPHEG) second instar larva (assay: Bioassay on beet armyworm (BAW), 128-well diet tray assay). Settings: 50 μg/cm^2 on artificial diet, 25° C., five days.
Type: in vivo
Procedure: Example A: Bioassays on Beet Armyworm (Spodoptera exigua, LAPHEG) (“BAW”) and Cabbage Looper (Trichoplusia ni, TRIPNI) (“CL”)
Bioassays on BAW were conducted using a 128-well diet tray assay. One second instar BAW larva was placed in each well (8 wells total) of the diet tray that had been previously filled with 1 mL of artificial diet to which 50 μg/cm^2 of the test molecule (dissolved in 50 μL of 90:10 acetone-water mixture) had been applied (to each of eight wells) and then allowed to dry. Trays were covered with a clear self-adhesive cover, vented to allow gas exchange, and held at 25° C., 14:10 light-dark for five days. Percent mortality was recorded for the larvae in each well; activity in the eight wells was then averaged.

SMILES | activity against BAW (percent mortality, averaged over eight wells)
O=C(CC(F)(F)F)Nc1cc(NC(=O)[C@H]2[C@H](c3cc(Cl)cc(Cl)c3)C2(Cl)Cl)ccc1Cl (racemic) [F5, trans-rac-2,2-Dichloro-N-(4-chloro-3-(3,3,3-trifluoropropanamido)phenyl)-3-(3,5-dichlorophenyl)cyclopropane-1-carboxamide] | exhibited activity
CC(C(=O)Nc1cc(NC(=O)C2C(c3cc(Cl)cc(Cl)c3)C2(Cl)Cl)ccc1Cl)C(F)(F)F (racemic) [F6, trans-rac-2,2-Dichloro-N-(4-chloro-3-(3,3,3-trifluoro-2-methylpropanamido)phenyl)-3-(3,5-dichlorophenyl)cyclopropane-1-carboxamide] | exhibited activity
CC(CC(F)(F)F)C(=O)Nc1cc(NC(=O)C2C(c3cc(Cl)cc(Cl)c3)C2(Cl)Cl)ccc1Cl (racemic) [F8, trans-rac-2,2-Dichloro-N-(4-chloro-3-(4,4,4-trifluoro-2-methylbutanamido)phenyl)-3-(3,5-dichlorophenyl)cyclopropane-1-carboxamide] | exhibited activity
CC(CC(=O)Nc1cc(NC(=O)C2C(c3cc(Cl)cc(Cl)c3)C2(Cl)Cl)ccc1Cl)C(F)(F)F (racemic) [F9, trans-rac-2,2-Dichloro-N-(4-chloro-3-(4,4,4-trifluoro-3-methylbutanamido)phenyl)-3-(3,5-dichlorophenyl)cyclopropane-1-carboxamide] | exhibited activity
O=C(Nc1cc(NC(=O)[C@H]2[C@H](c3cc(Cl)cc(Cl)c3)C2(Cl)Cl)ccc1Cl)c1ccc(F)cc1F (racemic) [F24, trans-rac-N-(2-Chloro-5-(2,2-dichloro-3-(3,5-dichlorophenyl)cyclopropane-1-carboxamido)phenyl)-2,4-difluorobenzamide] | exhibited activity
O=C(Nc1cc(NC(=O)[C@H]2[C@H](c3cc(Cl)cc(Cl)c3)C2(Cl)Cl)ccc1Cl)c1cc(F)cc(F)c1 (racemic) [F26, trans-rac-N-(2-chloro-5-(2,2-dichloro-3-(3,5-dichlorophenyl)cyclopropane-1-carboxamido)phenyl)-3,5-difluorobenzamide] | exhibited activity
Cc1cc(C#N)ccc1C(=O)Nc1cc(NC(=O)[C@H]2[C@H](c3cc(Cl)cc(Cl)c3)C2(Cl)Cl)ccc1Cl (racemic) [F27, trans-rac-N-(2-Chloro-5-(2,2-dichloro-3-(3,5-dichlorophenyl)cyclopropane-1-carboxamido)phenyl)-4-cyano-2-methylbenzamide] | exhibited activity
O=C(Nc1cc(NC(=O)[C@H]2[C@H](c3cc(Cl)cc(Cl)c3)C2(Cl)Cl)ccc1Cl)c1ccc(F)cn1 (racemic) [F30, trans-rac-N-(2-Chloro-5-(2,2-dichloro-3-(3,5-dichlorophenyl)cyclopropane-1-carboxamido)phenyl)-5-fluoropicolinamide] | exhibited activity
O=C(Nc1cc(NC(=O)[C@H]2[C@H](c3cc(Cl)cc(Cl)c3)C2(Cl)Cl)ccc1Cl)c1ccncn1 (racemic) [F32, trans-rac-N-(2-Chloro-5-(2,2-dichloro-3-(3,5-dichlorophenyl)cyclopropane-1-carboxamido)phenyl)pyrimidine-4-carboxamide] | exhibited activity
O=C(Nc1cc(NC(=O)[C@H]2[C@H](c3cc(Cl)cc(Cl)c3)C2(Cl)Cl)ccc1Cl)c1ccco1 (racemic) [F34, trans-rac-N-(2-Chloro-5-(2,2-dichloro-3-(3,5-dichlorophenyl)cyclopropane-1-carboxamido)phenyl)furan-2-carboxamide] | exhibited activity
O=C(Nc1cc(NC(=O)[C@H]2[C@H](c3cc(Cl)cc(Cl)c3)C2(Cl)Cl)ccc1Cl)c1nc(C(F)(F)F)cs1 (racemic) [F36, trans-rac-N-(2-Chloro-5-(2,2-dichloro-3-(3,5-dichlorophenyl)cyclopropane-1-carboxamido)phenyl)-4-(trifluoromethyl)thiazole-2-carboxamide] | exhibited activity
O=C(Nc1cc(NC(=O)[C@H]2[C@H](c3cc(Cl)cc(Cl)c3)C2(Cl)Cl)ccc1Cl)c1cc(=O)[nH]o1 (racemic) [F37, trans-rac-N-(2-Chloro-5-(2,2-dichloro-3-(3,5-dichlorophenyl)cyclopropane-1-carboxamido)phenyl)-3-oxo-2,3-dihydroisoxazole-5-carboxamide] | exhibited activity
O=C(Nc1cc(NC(=O)C2C(c3cc(Cl)cc(Cl)c3)C2(Cl)Cl)ccc1Cl)C1CCCO1 (racemic) [F38, trans-rac-N-(2-Chloro-5-(2,2-dichloro-3-(3,5-dichlorophenyl)cyclopropane-1-carboxamido)phenyl)tetrahydrofuran-2-carboxamide] | exhibited activity
CC(Oc1ccccc1)C(=O)Nc1cc(NC(=O)C2C(c3cc(Cl)cc(Cl)c3)C2(Cl)Cl)ccc1Cl (racemic) [F41, trans-rac-2,2-Dichloro-N-(4-chloro-3-(2-phenoxypropanamido)phenyl)-3-(3,5-dichlorophenyl)cyclopropane-1-carboxamide] | exhibited activity
N#CC1(C(=O)Nc2cc(NC(=O)[C@H]3[C@H](c4cc(Cl)cc(Cl)c4)C3(Cl)Cl)ccc2Cl)CC1 (racemic) [F43, trans-rac-2,2-Dichloro-N-(4-chloro-3-(1-cyanocyclopropane-1-carboxamido)phenyl)-3-(3,5-dichlorophenyl)cyclopropane-1-carboxamide] | exhibited activity
O=C(Nc1cc(NC(=O)C2C(c3cc(Cl)cc(Cl)c3)C2(Cl)Cl)ccc1Cl)C1CC1(F)F (racemic) [F44, trans-rac-2,2-Dichloro-N-(4-chloro-3-(2,2-difluorocyclopropane-1-carboxamido)phenyl)-3-(3,5-dichlorophenyl)cyclopropane-1-carboxamide] | exhibited activity
C=CCC(=O)Nc1cc(NC(=O)[C@H]2[C@H](c3cc(Cl)cc(Cl)c3)C2(Cl)Cl)ccc1Cl (racemic) [F47, trans-rac-N-(3-But-3-enamido-4-chlorophenyl)-2,2-dichloro-3-(3,5-dichlorophenyl)cyclopropane-1-carboxamide] | exhibited activity
O=C(Cc1c(F)cc(F)cc1F)Nc1cc(NC(=O)[C@H]2[C@H](c3cc(Cl)cc(Cl)c3)C2(Cl)Cl)ccc1Cl (racemic) [F49, trans-rac-2,2-Dichloro-N-(4-chloro-3-(2-(2,4,6-trifluorophenyl)acetamido)phenyl)-3-(3,5-dichlorophenyl)cyclopropane-1-carboxamide] | exhibited activity
CC(=O)NCC(=O)Nc1cc(NC(=O)[C@H]2[C@H](c3cc(Cl)cc(Cl)c3)C2(Cl)Cl)ccc1Cl (racemic) [F51, trans-rac-N-(3-(2-Acetamidoacetamido)-4-chlorophenyl)-2,2-dichloro-3-(3,5-dichlorophenyl)cyclopropane-1-carboxamide] | exhibited activity
O=C(Nc1cc(NC(=O)C2C(c3cc(Cl)cc(Cl)c3)C2(Cl)Cl)ccc1Cl)C1CCCN1CC(F)(F)F (racemic) [F52, trans-rac-N-(2-Chloro-5-(2,2-dichloro-3-(3,5-dichlorophenyl)cyclopropane-1-carboxamido)phenyl)-1-(2,2,2-trifluoroethyl)pyrrolidine-2-carboxamide] | exhibited activity
O=C(Nc1ccc(Cl)c(NC(=O)C(F)(F)C(F)F)c1)[C@H]1[C@H](c2cc(Cl)cc(Cl)c2)C1(Cl)Cl (racemic) [F55, trans-rac-2,2-Dichloro-N-(4-chloro-3-(2,2,3,3-tetrafluoropropanamido)phenyl)-3-(3,5-dichlorophenyl)cyclopropane-1-carboxamide] | exhibited activity
O=C(Nc1ccc(Cl)c(NC(=O)C(F)(F)c2ccccc2)c1)[C@H]1[C@H](c2cc(Cl)cc(Cl)c2)C1(Cl)Cl (racemic) [F57, trans-rac-2,2-Dichloro-N-(4-chloro-3-(2,2-difluoro-2-phenylacetamido)phenyl)-3-(3,5-dichlorophenyl)cyclopropane-1-carboxamide] | exhibited activity
O=C(CN1CCOCC1)Nc1cc(NC(=O)[C@H]2[C@H](c3cc(Cl)cc(Cl)c3)C2(Cl)Cl)ccc1F (racemic) [F63, trans-rac-2,2-Dichloro-3-(3,5-dichlorophenyl)-N-(4-fluoro-3-(2-morpholinoacetamido)phenyl)cyclopropane-1-carboxamide] | exhibited activity
O=C(Nc1cc(NC(=O)[C@H]2[C@H](c3cc(Cl)cc(Cl)c3)C2(Cl)Cl)ccc1Cl)c1ccccc1F (racemic) [F65, trans-rac-N-(2-Chloro-5-(2,2-dichloro-3-(3,5-dichlorophenyl)cyclopropane-1-carboxamido)phenyl)-2-fluorobenzamide] | exhibited activity
O=C(Nc1cc(NC(=O)[C@H]2[C@H](c3cc(Cl)cc(Cl)c3)C2(Cl)Cl)ccc1Cl)c1cccc(F)c1 (racemic) [F66, trans-rac-N-(2-Chloro-5-(2,2-dichloro-3-(3,5-dichlorophenyl)cyclopropane-1-carboxamido)phenyl)-3-fluorobenzamide] | exhibited activity
